Assay results reported in US7671058B2, “N-(3,4-disubstituted phenyl) salicylamide derivatives” (Institute of Medicinal Molecular Design, Inc., priority 2006, dated 2010).
pIC50: −log10 of the molar value. Where two headings read alike, the source gives them in different places.

Assays:
STAT6 = STAT6 inhibition test: (GLS)x8/pTA-Luc luciferase reporter in U2-OS cells stimulated with human IL-4; format: cell-based; details: human IL-4 40 ng/mL; for Inhibition Rate of STAT6 (%) / inhibition at 2 µM: compound 2 μM, 8 hours; for pIC50: from inhibition rates at 1, 0.1, 0.01 and 0.001 μM, read-out: IC50 against activation of STAT6; for inhibition at 2 µM: read-out: Inhibition Rate of STAT6 (%)
Source text: (1) Construction of a STAT6 Reporter Plasmid
The Oligonucleotides (SEQ ID: 1, 2) containing two copies of STAT6 binding sequences (refer to J. Biol. Chem., vol. 276, No. 9, pp. 6675-6688 (2001).) were synthesized, and integrated into the enhancer region of the reporter plasmid pTA-Luc Vector (CLONTECH Laboratories, Inc.) at the restriction enzyme BgIII site.
When the oligonucleotide is integrated in positive direction into the plasmid, the upstream BglII site is not reconstructed. Therefore, STAT6 binding sequences can be increased by repeating integration of the oligonucleotide at the restriction enzyme BglII site.
In the present test, a plasmid including eight integrated STAT6 binding sequences was constructed and provided for the reporter assay as (GLS)x8/pTA-Luc. Confirmation of the sequences was carried out using an automated fluorescence sequencer (Model 310 (Applied Biosystems)).
(2) Transfection into U2-OS Cells and Inhibition Test for STAT6 Activation
U2-OS cells were seeded to at 2×10^4 cells/well in 96-well culture plates, and transfection was carried out using FuGENE 6 Transfection Reagent (Roche Diagnostics GmbH). The procedures of the transfection are shown below.
11 μg of reporter plasmid ((GLS)x8/pTA-Luc) and 1.1 μg of pCMV β (CLONTECH Laboratories, Inc.) were mixed in 1.1 mL of OPTI-MEM I medium (GIBCO BRL) (solution (A)).
33 μL of FuGENE 6 Transfection Reagent was mixed in 1.1 mL of OPTI-MEM I medium (solution (B)).
(§1) The above solution (A) and solution (B) were mixed, let them stand for 15 minutes at room temperature, then, 8.8 mL of OPTI-MEM I medium was added and diluted.
To this transfection solution, U2-OS cell suspension (11 mL) in McCoy's 5A medium (GIBCO BRL) containing 10% Fetal Bovine Serum (FBS; GIBCO BRL) at 2×10^5 cells/mL was added and well mixed.
(§2) 0.2 mL of the above solution was dispensed into each well of 96-well culture plates, and incubated for 24 hours (37° C., 5% CO2).
After removal of 50 μL of medium from each well, 50 μL of McCoy's 5A medium (serum-free) containing compound, of the present application was added to a final concentration of 0.01˜2 μM (0.001, 0.01, 0.1, 0.5, 1 or 2 μM), and the plates were incubated for 2 hours (37° C., 5% CO2).
10 μL of the McCoy's 5A medium (serum-free) containing human IL-4 (R&D Systems, Inc) was added to each well to achieve a final concentration of 40 ng/mL, and incubated for 8 hours (37° C., 5% CO2).
(§3) Medium was completely removed and plates were preserved at −80° C. until measurements.
(§4) Cell lysates were prepared by adding 40 μL of Passive Lysis Buffer (Promega Corporation) to each well.
(§5) 10 μL of each lysate was transferred to 96-well white plates. 50 μL of PicaGene L.T.2.0 (TOYO INK MFG. CO., LTD.) was added to each well, then, luminescence was measured after leaving for 10 minutes at room temperature.
(§6) 10 μL of each lysate was transferred to 96-well black plates. 100 μL of Z Buffer (preparation method will be explained later) was added to each well, and fluorescence was measured immediately.
(§7) 10 μL of each lysate was transferred to 96-well clear plates. 200 μL of protein assay reagent prepared from the BCA Protein Assay Kit (Pierce Biotechnology, Inc.) was added to each well, and, absorbance was measured after incubation for 30 minutes at 37° C.
(§8) For measurements of luminescence, fluorescence, and absorbance, microplate reader GENios (TECAN G.M.B.H.) was used.
(4) Calculation of Inhibition Rate
Luminescence values that show the degree of activation by IL-4 stimulation were normalized by β-gal values that show transfection efficiency. Using the normalized values, the following calculations were carried out using the luminescence values increased by IL-4 stimulation. Inhibition Rate(%)=[…] E: In the presence of the compound of the present application, increased luminescence value by IL-4 stimulation C: Without the presence of the compound of the present application, increased luminescence value by IL-4 stimulation […]

NF-κB = NF-κB inhibition test: pNFκB-Luc luciferase reporter in U2-OS cells stimulated with human TNF α; format: cell-based; details: human TNF α 10 ng/mL; for Inhibition Rate of NF-κB (%) / inhibition at 2 µM: compound 2 μM, 8 hours; for pIC50: from inhibition rates at 1, 0.1, 0.01 and 0.001 μM, read-out: IC50 against activation of NF-κB; for inhibition at 2 µM: read-out: Inhibition Rate of NF-κB (%)
Method: (1) Transfection to U2-OS Cells and Inhibition Test of Activation
U2-OS cells were seeded at 2×10^4 cells/well in 96-well culture plate, and transfection was carried out using FuGENE 6 Transfection Reagent (Roche Diagnostics GmbH). The procedures of the transfection are shown below.
11 μg of reporter plasmid (pNFκB-Luc; Stratagene Corporation) and 1.1 μg of pCMV β (CLONTECH Laboratories, Inc.) were mixed in 1.1 mL of OPTI-MEM I medium (GIBCO BRL) (solution (A)).
[…] of FuGENE 6 Transfection Reagent was mixed in 1.1 mL of OPTI-MEM I medium (solution (B)).
as §1
To this transfection solution, U2-OS cell suspension (11 mL) in McCoy's 5A medium (GIBCO BRL) containing 10% Fetal Bovine Serum (FBS; GIBCO BRL) at […] was added and well mixed.
as §2
After removal of 50 μL of medium from each well, 50 μL of McCoy's 5A medium (serum-free) containing compound of the present application was added to a final concentration of 0.01˜2 μM (0.001, 0.01, 0.1, 0.5, 1 or 2 μM), and the plates were incubated for 2 hours (37° C., 5% CO2).
10 μL of the McCoy's 5A medium (serum-free) containing human TNF α (PEPROTECH EC Ltd.) was added to each well to achieve a final concentration of 10 ng/mL, and incubated for 8 hours (37° C., 5% CO2).
as §3, §4, §5, §6, §7, §8
(3) Calculation of Inhibition Rate
Luminescence values that show the degree of activation by TNF α stimulation were normalized by β-gal values that show transfection efficiency. Using the normalized values, the following calculation was carried out using the luminescence values that increased by TNF α stimulation. Inhibition Rate(%)=[…] E: In the presence of the compound of the present application, increased luminescence values by TNF α stimulation C: Without the presence of the compound of the present application, increased luminescence values by TNF α, stimulation
The values of protein assay by BCA reagent were used for a simple assessment of cytotoxicity, and not used for the calculation of inhibition rates.
NF-κB Inhibition Rates are shown below. The values in parentheses in the table represent the concentration of the compound of the present application.
NF-κB inhibition rates where the concentrations of the compound of the present application were 1, 0.1, 0.01 and 0.001 μM were calculated, and the 50% inhibitory concentrations (IC50) of the compounds of the present application against activation of NF-κB were evaluated.

Row | SMILES | Inhibition Rate of STAT6 (%) (STAT6) | Inhibition Rate of NF-κB (%) (NF-κB) | also measured
1 | Cl.NC1CCN(c2ccc(NC(=O)c3cc(Cl)ccc3O)cc2Cl)CC1 [compound 75] | 76 (2 μM) % | 78 (2 μM) % | pIC50 (STAT6): 7.12; pIC50 (NF-κB): 7.45
2 | Cl.O=C(Nc1ccc(N2CCCNCC2)c(C(F)(F)F)c1)c1cc(Cl)ccc1O [compound 76] | 95 (2 μM) % | 94 (2 μM) % | pIC50 (STAT6): 7.48; pIC50 (NF-κB): 7.70
3 | NC1CCN(c2ccc(NC(=O)c3cc(Cl)ccc3O)cc2F)CC1 [compound 66] | 85 (2 μM) % | 92 (2 μM) % | pIC50 (STAT6): 8.42; pIC50 (NF-κB): 8.01
4 | O=C(Nc1ccc(OC2CCCCC2)c(F)c1)c1cc(Cl)ccc1O [compound 10] | 76 (2 μM) % | 45 (2 μM) % | –
5 | Cc1cc(NC(=O)c2cc(Cl)ccc2O)ccc1N1CCCCC1 [compound 9] | 53 (2 μM) % | – | –
6 | Cl.O=C(Nc1ccc(OC2CCNC2)c(F)c1)c1cc(Cl)ccc1O (centres unmarked) [compound 55] | 35 (2 μM) % | 16 (2 μM) % | –
7 | CN1CCN(c2ccc(NC(=O)c3cc(Cl)ccc3O)cc2C#N)CC1 [compound 79] | 59 (2 μM) % | 59 (2 μM) % | –
8 | Cl.NCC1CCCN(c2ccc(NC(=O)c3cc(Cl)ccc3O)cc2F)C1 (centres unmarked) [compound 54] | 89 (2 μM) % | 84 (2 μM) % | pIC50 (STAT6): 7.82; pIC50 (NF-κB): 7.36
9 | NC1CCN(c2ccc(NC(=O)c3cc(Cl)ccc3O)cc2F)C1 (centres unmarked) [compound 42] | 41 (2 μM) % | 24 (2 μM) % | –
10 | CCC1CNCCN1c1ccc(NC(=O)c2cc(Cl)ccc2O)cc1F.Cl (centres unmarked) [compound 89] | 62 (2 μM) % | 62 (2 μM) % | –
11 | NC1CCC(Oc2ccc(NC(=O)c3cc(Cl)ccc3O)cc2F)CC1 (centres unmarked) [compound 65] | 42 (2 μM) % | 20 (2 μM) % | –
12 | CN(C)C1CCN(c2ccc(NC(=O)c3cc(Cl)ccc3O)cc2F)CC1 [Compound 78] | – | – | inhibition at 2 µM (STAT6; U2OS): 46%; inhibition at 2 µM (NF-κB; U2OS): 49%
13 | CN1CCN(c2ccc(NC(=O)c3cc(F)ccc3O)cc2F)CC1.Cl [compound 59] | 60 (2 μM) % | 43 (2 μM) % | –
14 | O=C(Nc1ccc(OC2CCCCC2)c(C(F)(F)F)c1)c1cc(Cl)ccc1O [compound 5] | 88 (2 μM) % | 63 (2 μM) % | –
15 | CN1CCC(Oc2ccc(NC(=O)c3cc(Cl)ccc3O)cc2F)CC1 [compound 24] | 93 (2 μM) % | 91 (2 μM) % | pIC50 (STAT6): 7.43; pIC50 (NF-κB): 7.36
16 | O=C(Nc1ccc(N2CCNCC2)c(F)c1)c1cc(Cl)ccc1O [Compound 22] | – | – | inhibition at 2 µM (STAT6; U2OS): 85%; pIC50 (STAT6; U2OS): 7.08; inhibition at 2 µM (NF-κB; U2OS): 82%; pIC50 (NF-κB; U2OS): 7.09
17 | Cc1ccc(O)c(C(=O)Nc2ccc(N3CCN(C)CC3)c(F)c2)c1.Cl [compound 57] | 75 (2 μM) % | 62 (2 μM) % | –
18 | O=C1CCN(c2ccc(NC(=O)c3cc(Cl)ccc3O)cc2F)CC1 [compound 39] | 46 (2 μM) % | 16 (2 μM) % | –
19 | CN1CCN(c2ccc(NC(=O)c3cc(Cl)ccc3O)cc2Cl)CC1.Cl [compound 17] | 96 (2 μM) % | 90 (2 μM) % | pIC50 (STAT6): 7.08; pIC50 (NF-κB): 6.95
20 | CCC1CN(c2ccc(NC(=O)c3cc(Cl)ccc3O)cc2F)CCN1.Cl (centres unmarked) [compound 72] | 37 (2 μM) % | 41 (2 μM) % | –
21 | O=C(Nc1ccc(N2CCCCC2)c(F)c1)c1cc(Cl)ccc1O [compound 2] | 90 (2 μM) % | 77 (2 μM) % | pIC50 (STAT6): 7.24; pIC50 (NF-κB): 7.40
22 | CNC1CCN(c2ccc(NC(=O)c3cc(Cl)ccc3O)cc2F)CC1 [Compound 68] | – | – | inhibition at 2 µM (STAT6; U2OS): 74%; pIC50 (STAT6; U2OS): 7.39; inhibition at 2 µM (NF-κB; U2OS): 71%; pIC50 (NF-κB; U2OS): 7.20
23 | CN1CCN(c2ccc(NC(=O)c3ccc(F)cc3O)cc2F)CC1.Cl [compound 58] | 70 (2 μM) % | 59 (2 μM) % | –
24 | CC1CN(c2ccc(NC(=O)c3cc(Cl)ccc3O)cc2F)CCN1.Cl (centres unmarked) [compound 73] | 20 (2 μM) % | – | –
25 | Cl.O=C(Nc1ccc(OC2CCCNC2)c(F)c1)c1cc(Cl)ccc1O (centres unmarked) [compound 56] | 19 (2 μM) % | – | –
26 | CC1CCCN1c1ccc(NC(=O)c2cc(Cl)ccc2O)cc1F (centres unmarked) [compound 82] | 38 (2 μM) % | – | –
27 | O=C(Nc1cc(C(F)(F)F)cc(C(F)(F)F)c1)c1cc(Cl)ccc1O [N-[3,5-Bis(trifluoromethyl)phenyl]-5-chloro-2-hydroxybenzamide, reference compound] | – | – | pIC50 (NF-κB; U2OS): 6.41
28 | CN1CCN(c2ccc(NC(=O)c3ccccc3O)cc2F)CC1.Cl [compound 30] | 19 (2 μM) % | – | –
